Results published in ChEMBL document CHEMBL1201862, “PubChem BioAssay data set” (2004).
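1) Cells in 96-well plates. 2) Compound, 48 h, 5 concentrations. 3) Linear interpolation between surrounding doses. 4) Unreached endpoint = highest concentration. GI50: concentration for 50% inhibition of growth.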 The source made the active and inactive calls. Rule as the data show it: active = GI50 up to about 1.1 µM and inactive = higher.

Tests used:
Test in all cases: NCI-60 cell line screen, 48 h
HCC 2998 = system: HCC 2998
CCRF-CEM = system: CCRF-CEM
HOP-92 = system: HOP-92
K562 = system: K562
NCI/ADR-RES = system: NCI/ADR-RES
RXF 393 = system: RXF 393
EKVX = system: EKVX
DU-145 = system: DU-145
NCI-H460 = system: NCI-H460
MOLT-4 = system: MOLT-4
UACC-62 = system: UACC-62
OVCAR-5 = system: OVCAR-5
SK-OV-3 = system: SK-OV-3
HCT-15 = system: HCT-15
SNB-19 = system: SNB-19
U-251 = system: U-251
T47D = system: T47D
BT-549 = system: BT-549
KM12 = system: KM12
TK-10 = system: TK-10
HL-60 = system: HL-60
MDA-N = system: MDA-N
UO-31 = system: UO-31
M14 = system: M14
IGROV-1 = system: IGROV-1
SF-268 = system: SF-268
SF-295 = system: SF-295
HOP-62 = system: HOP-62
LOX IMVI = system: LOX IMVI
PC-3 = system: PC-3
NCI-H226 = system: NCI-H226
A498 = system: A498
NCI-H522 = system: NCI-H522
SK-MEL-5 = system: SK-MEL-5
OVCAR-8 = system: OVCAR-8
OVCAR-3 = system: OVCAR-3
MCF7 = system: MCF7
786-0 = system: 786-0
RPMI-8226 = system: RPMI-8226
SK-MEL-28 = system: SK-MEL-28
MDA-MB-231 = system: MDA-MB-231
OVCAR-4 = system: OVCAR-4
ACHN = system: ACHN
UACC-257 = system: UACC-257
SW-620 = system: SW-620
Malme-3M = system: Malme-3M
NCI-H23 = system: NCI-H23
Hs-578T = system: Hs-578T
HT-29 = system: HT-29
COLO 205 = system: COLO 205
SK-MEL-2 = system: SK-MEL-2
SNB-75 = system: SNB-75
MDA-MB-435 = system: MDA-MB-435
SF-539 = system: SF-539
SR = system: SR
SN12C = system: SN12C
HCT-116 = system: HCT-116
A549 = system: A549

`CON(C)C(=O)CNC(=O)OCC1c2ccccc2-c2ccccc21` was tested, and the GI50 (HCC 2998) was > 100 µM (inactive), the GI50 (CCRF-CEM) was 44.1 µM (inactive) and the GI50 (HOP-92) was 93.1 µM (inactive). For the same molecule, the GI50 (K562) was 40.7 µM (inactive), the GI50 (NCI/ADR-RES) was > 100 µM (inactive) and the GI50 (RXF 393) was > 100 µM (inactive). The GI50 (EKVX) was > 100 µM (inactive), the GI50 (DU-145) was > 100 µM (inactive) and the GI50 (NCI-H460) was > 100 µM (inactive). For the same molecule, the GI50 (MOLT-4) was 37.9 µM (inactive), the GI50 (UACC-62) was > 100 µM (inactive) and the GI50 (OVCAR-5) was > 100 µM (inactive). The GI50 (SK-OV-3) was > 100 µM (inactive), the GI50 (HCT-15) was 78 µM and the GI50 (SNB-19) was > 100 µM (inactive). For the same molecule, the GI50 (U-251) was 98.4 µM (inactive), the GI50 (T47D) was 68.4 µM (inactive) and the GI50 (BT-549) was > 100 µM (inactive). The GI50 (KM12) was > 100 µM (inactive), the GI50 (TK-10) was > 100 µM (inactive) and the GI50 (HL-60) was 25.5 µM (inactive). For the same molecule, the GI50 (MDA-N) was > 100 µM (inactive), the GI50 (UO-31) was 63.2 µM (inactive) and the GI50 (M14) was > 100 µM (inactive). For the same molecule, the GI50 (IGROV-1) was > 100 µM (inactive), the GI50 (SF-268) was > 100 µM (inactive) and the GI50 (SF-295) was > 100 µM (inactive). The GI50 (HOP-62) was > 100 µM (inactive), the GI50 (LOX IMVI) was 18.8 µM (inactive) and the GI50 (PC-3) was 85.1 µM (inactive). The GI50 (NCI-H226) was > 100 µM (inactive), the GI50 (A498) was 57.5 µM (inactive) and the GI50 (NCI-H522) was > 100 µM (inactive). For the same molecule, the GI50 (SK-MEL-5) was 84.5 µM (inactive), the GI50 (OVCAR-8) was > 100 µM (inactive) and the GI50 (OVCAR-3) was > 100 µM (inactive). For the same molecule, the GI50 (MCF7) was > 100 µM (inactive), the GI50 (786-0) was > 100 µM (inactive) and the GI50 (RPMI-8226) was 36.2 µM (inactive). For the same molecule, the GI50 (SK-MEL-28) was > 100 µM (inactive), the GI50 (MDA-MB-231) was > 100 µM (inactive) and the GI50 (OVCAR-4) was > 100 µM (inactive). For the same molecule, the GI50 (ACHN) was > 100 µM (inactive), the GI50 (UACC-257) was > 100 µM (inactive) and the GI50 (SW-620) was > 100 µM (inactive). For the same molecule, the GI50 (Malme-3M) was > 100 µM (inactive), the GI50 (NCI-H23) was > 100 µM (inactive) and the GI50 (Hs-578T) was > 100 µM (inactive). The GI50 (HT-29) was > 100 µM (inactive), the GI50 (COLO 205) was > 100 µM (inactive) and the GI50 (SK-MEL-2) was > 100 µM (inactive). The GI50 (SNB-75) was > 100 µM (inactive), the GI50 (MDA-MB-435) was > 100 µM (inactive) and the GI50 (SF-539) was > 100 µM (inactive). The GI50 (SR) was 30.6 µM (inactive), the GI50 (SN12C) was > 100 µM (inactive) and the GI50 (HCT-116) was 18.6 µM (inactive). For the same molecule, the GI50 (A549) was > 100 µM (inactive).
